# Where a SMILES comes first, the peptide text is derived from it. [ ]: non-standard residue; d: D form. Phe(3,4-F2) = N[C@@H](Cc1ccc(F)c(F)c1)C(=O)O; Cha = N[C@@H](CC1CCCCC1)C(=O)O; Aib = CC(C)(N)C(=O)O
# Tests used:
# [1] = biological target: SARS-CoV-2 RBD binding to immobilized ACE2 (Severe acute respiratory syndrome coronavirus 2, UniProt P0DTC2); assay: biochemical
# [2] = Solubility measurement (peptide concentration in saturated solution); settings: sodium-phosphate buffer, pH 7.4, aqueous buffer, thermodynamic from solid
# Description: Approximately 2 mg of each peptide was added to 500 µl of buffer in 1.5-ml Eppendorf tubes. The tubes were shaken at 25 °C for 2 h on a 900 r.p.m. vortex shaker. The samples were centrifuged at 12,000 r.p.m. for 15 min to remove the precipitate and the supernatant was analyzed by ultraviolet–visible light (UV–vis) spectrometry.
# SARS-CoV-2 RBD = SARS-CoV-2 RBD (Severe acute respiratory syndrome coronavirus 2, UniProt P0DTC2); assay: biochemical; type: binding; settings: for Kd: KD (direct binding to RBD); for kon: read-out: ka
SMILES,IC50 [1],solubility thermodynamic at 2 h [2],Kd (SARS-CoV-2 RBD),kon (SARS-CoV-2 RBD)
CC[C@H](C)[C@H](NC(=O)[C@H](CC(C)C)NC(=O)[C@H](CC(=O)O)NC(=O)[C@H](CO)NC(=O)[C@@H](NC(=O)[C@H](CCCNC(=N)N)NC(=O)[C@H](CCSC)NC(=O)[C@H](CO)NC(=O)[C@H](C)NC(=O)[C@H](CCC(=O)O)NC(=O)[C@H](C)NC(=O)[C@H](Cc1c[nH]cn1)NC(=O)CNC(=O)[C@H](CC(C)C)NC(=O)[C@H](CCC(=O)O)NC(=O)[C@H](CC(=O)O)NC(=O)[C@H](CC(C)C)NC(=O)[C@H](CC(C)C)NC(=O)[C@H](CCCNC(=N)N)NC(=O)[C@H](CCSC)NC(=O)[C@@H](NC(=O)[C@H](CCC(=O)O)NC(=O)[C@H](Cc1ccc(O)cc1)NC(=O)[C@@H](NC(=O)[C@H](CCCCN)NC(=O)[C@H](CCC(N)=O)NC(=O)[C@H](CC(C)C)NC(=O)[C@@H](NC(=O)[C@H](Cc1c[nH]c2ccccc12)NC(=O)[C@H](CCC(=O)O)NC(=O)[C@H](CCCCN)NC(=O)[C@@H](N)CC(=O)O)[C@@H](C)CC)[C@@H](C)CC)[C@@H](C)CC)C(C)C)C(=O)N[C@@H](Cc1ccc(O)cc1)C(=O)N[C@@H](CCC(=O)O)C(=O)N[C@@H](Cc1ccccc1)C(=O)N[C@@H](CCSC)C(=O)N[C@@H](CCCCN)C(=O)N[C@@H](CCCCN)C(N)=O [SIH-1],2500 to 5000 nM,17 µM,–,–
CC[C@H](C)[C@H](NC(=O)[C@H](CC(C)C)NC(=O)[C@H](CC(=O)O)NC(=O)[C@H](CO)NC(=O)[C@@H](NC(=O)[C@H](CCCNC(=N)N)NC(=O)[C@H](CCSC)NC(=O)[C@H](CO)NC(=O)[C@H](C)NC(=O)[C@H](CCC(=O)O)NC(=O)C(C)(C)NC(=O)[C@H](Cc1c[nH]cn1)NC(=O)CNC(=O)[C@H](CC(C)C)NC(=O)[C@H](CCC(=O)O)NC(=O)[C@H](CC(=O)O)NC(=O)[C@H](CC(C)C)NC(=O)[C@H](CC(C)C)NC(=O)[C@H](CCCNC(=N)N)NC(=O)[C@H](CCSC)NC(=O)[C@@H](NC(=O)[C@H](CCC(=O)O)NC(=O)[C@H](Cc1ccc(O)cc1)NC(=O)[C@@H](NC(=O)[C@H](CCCCN)NC(=O)[C@H](CCC(N)=O)NC(=O)[C@H](CC(C)C)NC(=O)[C@@H](NC(=O)[C@H](Cc1c[nH]c2ccccc12)NC(=O)[C@H](CCC(=O)O)NC(=O)[C@H](CCCCN)NC(=O)[C@@H](N)CC(=O)O)[C@@H](C)CC)[C@@H](C)CC)[C@@H](C)CC)C(C)C)C(=O)N[C@@H](Cc1ccc(O)cc1)C(=O)N[C@@H](CCC(=O)O)C(=O)N[C@@H](Cc1ccccc1)C(=O)N[C@@H](CCSC)C(=O)N[C@@H](CCCCN)C(=O)N[C@@H](CCCCN)C(N)=O [SIH-2] (H-DKEWILQKIYEIMRLLDELGH[Aib]EASMRVSDLIYEFMKK-NH2),1250 to 2500 nM,32 µM,–,–
CC[C@H](C)[C@H](NC(=O)[C@H](CC(C)C)NC(=O)[C@H](CC(=O)O)NC(=O)[C@H](CO)NC(=O)[C@@H](NC(=O)[C@H](CCCNC(=N)N)NC(=O)[C@H](CCSC)NC(=O)[C@H](CO)NC(=O)[C@H](C)NC(=O)[C@H](CCC(=O)O)NC(=O)C(C)(C)NC(=O)[C@H](Cc1c[nH]cn1)NC(=O)[C@@H](C)NC(=O)[C@H](CC(C)C)NC(=O)[C@H](CCC(=O)O)NC(=O)[C@H](CC(=O)O)NC(=O)[C@H](CC(C)C)NC(=O)[C@H](CC(C)C)NC(=O)[C@H](CCCNC(=N)N)NC(=O)[C@H](CCSC)NC(=O)[C@@H](NC(=O)[C@H](CCC(=O)O)NC(=O)[C@H](Cc1ccc(O)cc1)NC(=O)[C@@H](NC(=O)[C@H](CCCCN)NC(=O)[C@H](CCC(N)=O)NC(=O)[C@H](CC(C)C)NC(=O)[C@@H](NC(=O)[C@H](Cc1c[nH]c2ccccc12)NC(=O)[C@H](CCC(=O)O)NC(=O)[C@H](CCCCN)NC(=O)[C@@H](N)CC(=O)O)[C@@H](C)CC)[C@@H](C)CC)[C@@H](C)CC)C(C)C)C(=O)N[C@@H](Cc1ccc(O)cc1)C(=O)N[C@@H](CCC(=O)O)C(=O)N[C@@H](Cc1ccccc1)C(=O)N[C@@H](CCSC)C(=O)N[C@@H](CCCCN)C(=O)N[C@@H](CCCCN)C(N)=O [SIH-3] (H-DKEWILQKIYEIMRLLDEL[dA]H[Aib]EASMRVSDLIYEFMKK-NH2),125 to 250 nM,95 µM,–,–
"CC[C@H](C)[C@H](NC(=O)[C@H](CC(C)C)NC(=O)[C@H](CC(=O)O)NC(=O)[C@H](CO)NC(=O)[C@@H](NC(=O)[C@H](CCCNC(=N)N)NC(=O)[C@H](CCSC)NC(=O)[C@H](CO)NC(=O)[C@H](C)NC(=O)[C@H](CCC(=O)O)NC(=O)C(C)(C)NC(=O)[C@H](CC(=O)O)NC(=O)[C@@H](C)NC(=O)[C@H](CC(C)C)NC(=O)[C@H](CCC(=O)O)NC(=O)[C@H](CC(=O)O)NC(=O)[C@H](CC(C)C)NC(=O)[C@H](CC(C)C)NC(=O)[C@H](CCCNC(=N)N)NC(=O)[C@H](CCSC)NC(=O)[C@@H](NC(=O)[C@H](CCC(=O)O)NC(=O)[C@H](Cc1ccc(F)c(F)c1)NC(=O)[C@@H](NC(=O)[C@H](CCCCN)NC(=O)[C@H](CCC(N)=O)NC(=O)[C@H](CC(C)C)NC(=O)[C@@H](NC(=O)[C@H](Cc1c[nH]c2ccccc12)NC(=O)[C@H](CCC(=O)O)NC(=O)[C@H](CCCCN)NC(=O)[C@@H](N)CC(=O)O)[C@@H](C)CC)[C@@H](C)CC)[C@@H](C)CC)C(C)C)C(=O)N[C@@H](Cc1ccc(O)cc1)C(=O)N[C@@H](CCC(=O)O)C(=O)N[C@@H](Cc1ccccc1)C(=O)N[C@@H](CCSC)C(=O)N[C@@H](CCCCN)C(=O)N[C@@H](CCCCN)C(N)=O [SIH-7] (H-DKEWILQKI[Phe(3,4-F2)]EIMRLLDEL[dA]D[Aib]EASMRVSDLIYEFMKK-NH2)",125 to 250 nM,–,2.9 nM,–
"CC[C@H](C)[C@H](NC(=O)[C@H](CC(C)C)NC(=O)[C@H](CC(=O)O)NC(=O)[C@H](CO)NC(=O)[C@@H](NC(=O)[C@H](CCCNC(=N)N)NC(=O)[C@H](CCSC)NC(=O)[C@H](CO)NC(=O)[C@H](C)NC(=O)[C@H](CCC(=O)O)NC(=O)C(C)(C)NC(=O)[C@H](CC(=O)O)NC(=O)[C@@H](C)NC(=O)[C@H](CC(C)C)NC(=O)[C@H](CCC(=O)O)NC(=O)[C@H](CC(=O)O)NC(=O)[C@H](CC(C)C)NC(=O)[C@H](CC(C)C)NC(=O)[C@H](CCCNC(=N)N)NC(=O)[C@H](CCSC)NC(=O)[C@@H](NC(=O)[C@H](CCC(=O)O)NC(=O)[C@H](Cc1ccc(F)c(F)c1)NC(=O)[C@@H](NC(=O)[C@H](CCCCN)NC(=O)[C@H](CCC(N)=O)NC(=O)[C@H](CC(C)C)NC(=O)[C@@H](NC(=O)[C@H](Cc1c[nH]c2ccccc12)NC(=O)[C@H](CCC(=O)O)NC(=O)[C@H](CCCCN)NC(=O)[C@@H](N)CC(=O)O)[C@@H](C)CC)[C@@H](C)CC)[C@@H](C)CC)C(C)C)C(=O)N[C@@H](Cc1ccc(O)cc1)C(=O)N[C@@H](CCC(=O)O)C(=O)N[C@@H](CC1CCCCC1)C(=O)N[C@@H](CCSC)C(=O)N[C@@H](CCCCN)C(=O)N[C@@H](CCCCN)C(N)=O [SIH-13] (H-DKEWILQKI[Phe(3,4-F2)]EIMRLLDEL[dA]D[Aib]EASMRVSDLIYE[Cha]MKK-NH2)",125 to 250 nM,–,1.6 nM,–
CC[C@H](C)[C@H](NC(=O)[C@H](C)NC(=O)[C@H](CC(=O)O)NC(=O)[C@H](CO)NC(=O)[C@@H](NC(=O)[C@H](CCCNC(=N)N)NC(=O)[C@H](CCSC)NC(=O)[C@H](CO)NC(=O)[C@H](C)NC(=O)[C@H](CCC(=O)O)NC(=O)C(C)(C)NC(=O)[C@H](CC(=O)O)NC(=O)[C@@H](C)NC(=O)[C@H](CC(C)C)NC(=O)[C@H](CCC(=O)O)NC(=O)[C@H](CC(=O)O)NC(=O)[C@H](CC(C)C)NC(=O)[C@H](CC(C)C)NC(=O)[C@H](CCCNC(=N)N)NC(=O)[C@H](CCSC)NC(=O)[C@H](C)NC(=O)[C@H](CCC(=O)O)NC(=O)[C@H](Cc1ccc(O)cc1)NC(=O)[C@@H](NC(=O)[C@H](CCCCN)NC(=O)[C@H](CCC(N)=O)NC(=O)[C@H](CC(C)C)NC(=O)[C@@H](NC(=O)[C@H](Cc1c[nH]c2ccccc12)NC(=O)[C@H](CCC(=O)O)NC(=O)[C@H](CCCCN)NC(=O)[C@@H](N)CC(=O)O)[C@@H](C)CC)[C@@H](C)CC)C(C)C)C(=O)N[C@@H](Cc1ccc(O)cc1)C(=O)N[C@@H](CCC(=O)O)C(=O)N[C@@H](Cc1ccccc1)C(=O)N[C@@H](CCSC)C(=O)N[C@@H](CCCCN)C(=O)N[C@@H](CCCCN)C(N)=O [SIH-14] (H-DKEWILQKIYEAMRLLDEL[dA]D[Aib]EASMRVSDAIYEFMKK-NH2),250 to 500 nM,–,3 nM,90000 M⁻¹ s⁻¹
CC[C@H](C)[C@H](NC(=O)[C@H](CCC(=O)O)NC(=O)[C@H](CC(=O)O)NC(=O)[C@H](CO)NC(=O)[C@@H](NC(=O)[C@H](CCCNC(=N)N)NC(=O)[C@H](CCSC)NC(=O)[C@H](CO)NC(=O)[C@H](C)NC(=O)[C@H](CCC(=O)O)NC(=O)C(C)(C)NC(=O)[C@H](CC(=O)O)NC(=O)[C@@H](C)NC(=O)[C@H](CC(C)C)NC(=O)[C@H](CCC(=O)O)NC(=O)[C@H](CC(=O)O)NC(=O)[C@H](CC(C)C)NC(=O)[C@H](CC(C)C)NC(=O)[C@H](CCCNC(=N)N)NC(=O)[C@H](CCSC)NC(=O)[C@H](CCC(=O)O)NC(=O)[C@H](CCC(=O)O)NC(=O)[C@H](Cc1ccc(O)cc1)NC(=O)[C@@H](NC(=O)[C@H](CCCCN)NC(=O)[C@H](CCC(N)=O)NC(=O)[C@H](CC(C)C)NC(=O)[C@@H](NC(=O)[C@H](Cc1c[nH]c2ccccc12)NC(=O)[C@H](CCC(=O)O)NC(=O)[C@H](CCCCN)NC(=O)[C@@H](N)CC(=O)O)[C@@H](C)CC)[C@@H](C)CC)C(C)C)C(=O)N[C@@H](Cc1ccc(O)cc1)C(=O)N[C@@H](CCC(=O)O)C(=O)N[C@@H](Cc1ccccc1)C(=O)N[C@@H](CCSC)C(=O)N[C@@H](CCCCN)C(=O)N[C@@H](CCCCN)C(N)=O [SIH-15] (H-DKEWILQKIYEEMRLLDEL[dA]D[Aib]EASMRVSDEIYEFMKK-NH2),250 to 500 nM,–,1.7 nM,150000 M⁻¹ s⁻¹

# Source: article PMC9512702 (Nature Chemical Biology, 2022)
